# PMC12822377, “Investigating the role of cytochrome bd oxidases in the antibacterial activity of madecassic acid and derivatives thereof” (RSC Medicinal Chemistry, 2026)
# Legend:
# [1] = test system: wild type E. coli EC958 cells; test: Growth assay against wild type E. coli EC958 cells; assay type: cell-based, Escherichia coli; conditions: wild type EC958 strain, aerobic conditions
# Procedure: (§1) Starter cultures were grown in 10 mL LB (E. coli) in sterile 50 mL conical flasks at 180 rpm and 37 °C until stationary phase was reached and were used to inoculate 50 mL of fresh growth medium in 250 mL conical flasks. M9 minimal medium was used for E. coli (16 g L^−1 Na2HPO4·2H2O, 3 g L^−1 KH2PO4, 0.5 g L^−1 NaCl, 1 g L^−1 NH4Cl, 0.24 g L^−1 MgSO4, 0.01 g L^−1 CaCl2, 0.1% casamino acids and 2% glycerol). Drug stocks were prepared in DMSO so that their final concentrations were 40× higher than the working concentrations. Greiner F-bottom sterile 96-well plates were prepared by adding 100 μL of a 2× concentrated growth medium, 61.7 μL sterile milliQ H2O, 5 μL of the drug and 33.3 μL of cell culture (final OD600 of ∼0.1). Cells were grown in a FLUOstar Omega plate reader at double orbital pattern setting.
# (§2) Figure S1. Impact of madecassic acid upon E. coli growth and survival. (A) Growth assays of MA against wild type E. coli EC958 cells. Error bars represent standard deviations for at least 4 technical repeats, including two biological repeats. (B) Wild type E. coli EC958 cells were exposed to various concentrations of madecassic acid and bacterial survival was enumerated using serial dilution and viability plating. Error bars represent standard deviations for at least four technical repeats, including two […]
# (§3) (1 picture or pasted object on this page, not shown here)
# [2] = test system: E. coli EC958 cytochrome bd-I only cells; test: microbe, parasite or virus in culture; assay type: cell-based, Escherichia coli
# Procedure: (§4) EC958 is a multidrug-resistant E. coli O25: H4-ST131 isolate.[16,17] Generation of the EC958 bd-I only strain (genotype ΔcyoA appCB::Cm) is described elsewhere.[13]
# (§5) Viability assays were performed essentially as described previously.[13] Briefly, E. coli was grown overnight in 10 mL LB medium and was used to inoculate M9 medium. 20 μL of each drug was added to the wells of row A of a 96 well plate followed by 180 μL of cells (OD600 of 0.1). Cells were exposed to drug for 3 hours at 37 °C. Following drug exposure, serial dilutions were performed in 1 × phosphate buffered saline (pH 7.4) before being spotted onto LB agar plates overnight to determine changes in cell survival. Six repeats were performed for each concentration of drug which included two biological repeats and three technical repeats of each.
# cytochrome bd-I [3] = molecular target: T1, cytochrome bd-I (Escherichia coli, UniProt P0ABJ9); test: Oxygen electrode cytochrome bd-I assay with duroquinol as the electron source (EcoM4 pSU2718G-cydABX-his6 membranes); assay type: biochemical; conditions: 1 mM, 400 µM duroquinol as electron donor
# T1 construct: oxygen consumption activity of E. coli EC958 cytochrome bd-I-only membranes; endogenous in cells; host or cells: E. coli EC958 bd-I only strain (genotype ΔcyoA appCB::Cm), isolated membranes
# Procedure: Oxygen electrode cytochrome bd-I assays with duroquinol as the electron source Membranes from the E. coli EcoM4 pSU2718G-cydABX-his 6 strain were prepared as described previously(6). To specifically monitor cytochrome bd-I activity, duroquinol was used as a directly electron source. Duroquinol was prepared from duroquinone as previously described(7) and quantified using the extinction coefficient ΔA275(ox – red) = 16 mM-1cm-1 (8). Cytochrome bd-I activity was then monitored via oxygen consumption in a Rank Brothers oxygen electrode with a 2 mL closed chamber at 37 °C, which contained 50 mM HEPES pH 7.4, 0.5 mg/mL membranes (based on wet membranes) and DMSO-solubilised drug (added from 40x final concentration) or ‘DMSO only’ control. A final concentration of 400 µM duroquinol (in 50 mM KPi, 2mM EDTA pH 7.5) was added to initiate the reaction.
# 7. Rich P. Electron transfer reactions between quinols and quinones in aqueous and aprotic
# 8. Degli Esposti M, Lenaz G, Izzo G, Papa S. Kinetics and sidedness of ubiquinol-cytochrome c
# Figure S3. […] Cytochrome bd-I activity was measured via monitoring oxygen consumption in an oxygen electrode in the presence and absence of 1 mM madecassic acid, and negative controls were recorded in the absence of membranes. […]
# succinate dehydrogenase = molecular target: T2, succinate dehydrogenase (Escherichia coli, UniProt P07014+P0AC41+P0AC44+P69054); test: Succinate dehydrogenase assay in isolated E. coli membranes; assay type: biochemical; conditions: 1 mM
# T2 construct: endogenous in cells; host or cells: E. coli membranes; the main text says EcoM4 pSU2718G-cydABX-his6, the supplement says EC958
# Source text: Investigating the role of cytochrome bd oxidases in the antibacterial activity of madecassic acid and derivatives thereof
# Samantha A. Henry,a Geraud N. Sansom,a Thao Thi Phuong Tran,b Ryan A.
# Boughton,a Guy Joiner,a Calum M. Webster,a H. Ireshika C. de Silva,c Michelle D.
# Garrett,a Christopher J. Serpell,d Gary K. Robinson,a Mark Shepherd a a School of Natural Sciences, University of Kent, Canterbury, United Kingdom, CT2 7NH, UK b Institute of Chemistry, Vietnam Academy of Science and Technology, 18 Hoang Quoc Viet Road, Cau […]
# c Department of Chemistry, University of Colombo, Colombo 03, Sri Lanka d School of Pharmacy, University College London, 29-39 Brunswick Square, London, WC1N 1AX, UK […]
# Spectrakinetics were recorded on a Cary 60 spectrophotometer for 15 min and rates were calculated using the extinction coefficient A600 = 20.7 mM -1cm-1 (5) . […]
# Isolated E. coli EC958 membranes were assayed for succinate dehydrogenase activity in the presence and absence of 1 mM madecassic acid (MA), and negative controls were recorded in the absence of membranes. […]
# [4] = test system: wild type E. coli EC958 cells; test: Survival assay against wild type E. coli EC958 cells; assay type: cell-based, Escherichia coli; conditions: wild type EC958 strain
# Procedure: as §5, §2, §3
# [5] = test system: E. coli EC958 cytochrome bd-I only cells; test: Growth assay against E. coli cytochrome bd-I only cells; assay type: cell-based, Escherichia coli; conditions: for IC50: Escherichia coli, read-out: IC50, growth inhibition, bd-I only E. coli cells, M9 minimal medium
# Procedure: as §4, §1
# cytochrome bd-I [6] = molecular target: T1, cytochrome bd-I; test: Oxygen consumption assay with isolated E. coli EC958 cytochrome bd-I only membranes; assay type: biochemical
# Procedure: Membrane preparation and oxygen consumption were performed as described previously.[13] Briefly, cells were grown to exponential phase then harvested via centrifugation for 20 min at 4000 rpm and 4 °C. The cell pellet was resuspended in ice-cold sonication buffer (20 mM Tris/HCl at pH 7.4, 2 mM MgCl2, and 1 mM EGTA). The resuspended cells were sonicated (6 × 30s on ice at […]) before centrifugation at 44 000 rpm for 1 h and 4 °C to isolate membranes. The membrane pellet was resuspended in 20 mM Tris/HCl (pH 7.4) at a final concentration of 100 mg mL^−1 and stored at −20 °C. For oxygen measurements a Rank Brothers oxygen electrode with a 4 mL closed chamber was used at 37 °C, which contained 50 mM HEPES pH 7.4, 0.5 mg mL^−1 membranes (based on wet membranes) and DMSO-solubilised drug (added from 40× final concentration). A final concentration of 8 mM succinate (pH 7.4) was added (from 160 mM stock) to initiate the reaction with a single run lasting 15–20 min.
# T1 sequence (P0ABK2 whole entry): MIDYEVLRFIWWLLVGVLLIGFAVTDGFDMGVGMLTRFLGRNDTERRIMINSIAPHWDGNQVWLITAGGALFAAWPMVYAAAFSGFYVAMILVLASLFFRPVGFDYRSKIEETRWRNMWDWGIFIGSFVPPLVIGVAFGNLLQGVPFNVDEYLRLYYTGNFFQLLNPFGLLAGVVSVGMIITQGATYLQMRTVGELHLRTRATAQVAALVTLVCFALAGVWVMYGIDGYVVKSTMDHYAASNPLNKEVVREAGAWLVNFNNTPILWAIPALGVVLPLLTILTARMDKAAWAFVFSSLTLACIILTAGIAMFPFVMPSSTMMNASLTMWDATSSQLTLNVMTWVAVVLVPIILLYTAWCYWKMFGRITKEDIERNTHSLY
# T1 sequence (A5A618 whole entry, further chain): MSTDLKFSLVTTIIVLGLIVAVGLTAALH
# T1 sequence (P0ABJ9 whole entry): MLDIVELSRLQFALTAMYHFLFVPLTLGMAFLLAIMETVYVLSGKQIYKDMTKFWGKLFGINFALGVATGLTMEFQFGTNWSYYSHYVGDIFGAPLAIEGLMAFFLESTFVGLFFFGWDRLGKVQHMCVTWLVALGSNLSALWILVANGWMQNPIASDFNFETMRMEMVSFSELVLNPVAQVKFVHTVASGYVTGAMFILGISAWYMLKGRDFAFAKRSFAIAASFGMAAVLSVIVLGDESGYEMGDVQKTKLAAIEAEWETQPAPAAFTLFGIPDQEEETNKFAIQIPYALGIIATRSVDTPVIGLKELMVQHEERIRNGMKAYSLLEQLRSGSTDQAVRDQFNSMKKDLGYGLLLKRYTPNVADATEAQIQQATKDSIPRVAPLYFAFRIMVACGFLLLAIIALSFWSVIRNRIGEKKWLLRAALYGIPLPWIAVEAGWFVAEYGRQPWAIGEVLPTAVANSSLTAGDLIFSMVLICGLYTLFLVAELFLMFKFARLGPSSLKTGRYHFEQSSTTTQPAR
# T1 sequence (P56100 whole entry, further chain): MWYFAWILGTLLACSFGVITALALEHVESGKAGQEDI
# T2 sequence (P0AC41 whole entry): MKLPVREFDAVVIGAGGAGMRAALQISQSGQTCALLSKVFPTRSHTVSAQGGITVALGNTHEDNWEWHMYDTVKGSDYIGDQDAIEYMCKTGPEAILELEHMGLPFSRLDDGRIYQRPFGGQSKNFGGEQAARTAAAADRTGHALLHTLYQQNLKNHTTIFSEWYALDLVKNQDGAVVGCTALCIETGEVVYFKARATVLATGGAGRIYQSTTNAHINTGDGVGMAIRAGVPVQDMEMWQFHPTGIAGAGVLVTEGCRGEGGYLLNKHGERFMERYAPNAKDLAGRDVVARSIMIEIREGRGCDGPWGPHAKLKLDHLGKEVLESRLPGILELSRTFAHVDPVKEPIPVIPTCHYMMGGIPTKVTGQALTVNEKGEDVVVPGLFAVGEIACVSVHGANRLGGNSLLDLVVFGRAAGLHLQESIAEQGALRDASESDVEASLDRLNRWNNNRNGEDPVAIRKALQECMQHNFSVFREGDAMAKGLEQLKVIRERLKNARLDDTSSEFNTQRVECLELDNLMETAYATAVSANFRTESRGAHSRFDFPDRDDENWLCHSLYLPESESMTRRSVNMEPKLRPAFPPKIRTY
# T2 sequence (P69054 whole entry): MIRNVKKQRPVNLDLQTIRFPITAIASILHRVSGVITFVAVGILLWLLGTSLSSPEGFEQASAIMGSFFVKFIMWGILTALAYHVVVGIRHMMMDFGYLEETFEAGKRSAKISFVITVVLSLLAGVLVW
# T2 sequence (P07014 whole entry): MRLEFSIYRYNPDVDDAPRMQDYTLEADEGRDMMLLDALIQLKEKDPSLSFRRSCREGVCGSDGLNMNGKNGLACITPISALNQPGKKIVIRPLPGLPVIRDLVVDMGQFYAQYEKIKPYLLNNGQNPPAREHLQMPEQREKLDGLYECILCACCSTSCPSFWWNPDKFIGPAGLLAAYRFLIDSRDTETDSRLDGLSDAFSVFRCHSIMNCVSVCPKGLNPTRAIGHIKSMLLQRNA
# T2 sequence (P0AC44 whole entry): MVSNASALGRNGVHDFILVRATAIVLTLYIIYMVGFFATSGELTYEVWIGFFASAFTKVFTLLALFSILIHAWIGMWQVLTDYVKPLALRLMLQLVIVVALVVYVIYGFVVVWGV
Structure (SMILES),"IC50 ([1]; Escherichia coli, read-out: IC50, growth inhibition)",maximal inhibition of growth [1],"killing of cells (viability assay) ([2]; bd-I only E. coli cells, 3 hours exposure at 37 °C)",effect on cytochrome bd-I activity (oxygen consumption) (cytochrome bd-I [3]),inhibition of SDH activity (succinate dehydrogenase),susceptibility to killing (survival assay) [4],IC50 [5],Max inhibition of growth ([5]; bd-I only E. coli cells),IC50 (cytochrome bd-I [6]),"LC50 ([2]; Escherichia coli, 3 h, read-out: LC50 (killing))"
"C[C@H]1[C@H](C)CC[C@]2(C(=O)O)CC[C@]3(C)C(=CC[C@@H]4[C@@]5(C)C[C@@H](O)[C@H](O)[C@@](C)(CO)[C@@H]5[C@H](O)C[C@]43C)[C@H]12 [MA, Madecassic acid]",~10 µM,48%,did not kill,completely abolishes bd-I activity,did not inhibit SDH,not susceptible to MA-mediated killing at concentrations below 1 mM,9.4 ± 1.5 µM,63%,34 ± 11 µM,
CC(=O)OCC1(C)C(OC(C)=O)C(OC(C)=O)CC2(C)C1C(O)CC1(C)C2CC=C2C3C(C)C(C)CCC3(C(=O)O)CCC21C (stereo not shown) [MA-2],,,,,,,116 ± 22 µM,,15 ± 5 µM,
CC(=O)OCC1(C)C(OC(C)=O)C(OC(C)=O)CC2(C)C1C(O)CC1(C)C2CC=C2C3C(C)C(C)CCC3(C(=O)NCCCCCCCCCCN)CCC21C (stereo not shown) [MA-3],,,,,,,16 ± 11 µM,,10 ± 1 µM,
CC1CCC2(C(=O)NCCCCCCCCCCN)CCC3(C)C(=CCC4C5(C)CC(O)C(O)C(C)(CO)C5C(O)CC43C)C2C1C (stereo not shown) [MA-4],,,,,,,> 250 µM,,79 ± 44 µM,304 ± 73 µM
